According to patent publication US10301291B2, “Imidazole derivative having JNK inhibitory activity and use thereof” (SAMJIN PHARMACEUTICAL CO., LTD., priority 2016, dated 2019):

Experiments:
Assay in all cases: Kinase profiling service (Reaction Biology Corp.)
Type in all cases: biochemical
Details in all cases: compound 10 μM
CDK2/cyclin E = CDK2/cyclin E (Homo sapiens (Human), UniProt P24941)
Experimental: (§1) An inhibitory activity of the compound (10 μM) of Example 34 against various protein kinases was measured by means of a kinase profiling service (ICso profiler express) of Reaction Biology Corp., wherein ICso, a concentration at which JNK enzyme activity was inhibited 50%, was also measured by sequentially reducing a concentration of the compound.

FLT3 = FLT3 (Homo sapiens (Human), UniProt P36888)
Experimental: as §1

FYN = FYN (Homo sapiens (Human), UniProt P06241)
Experimental: as §1

GSK3b = GSK3b (Homo sapiens (Human), UniProt P49841)
Sequence of GSK3b (P49841 whole entry): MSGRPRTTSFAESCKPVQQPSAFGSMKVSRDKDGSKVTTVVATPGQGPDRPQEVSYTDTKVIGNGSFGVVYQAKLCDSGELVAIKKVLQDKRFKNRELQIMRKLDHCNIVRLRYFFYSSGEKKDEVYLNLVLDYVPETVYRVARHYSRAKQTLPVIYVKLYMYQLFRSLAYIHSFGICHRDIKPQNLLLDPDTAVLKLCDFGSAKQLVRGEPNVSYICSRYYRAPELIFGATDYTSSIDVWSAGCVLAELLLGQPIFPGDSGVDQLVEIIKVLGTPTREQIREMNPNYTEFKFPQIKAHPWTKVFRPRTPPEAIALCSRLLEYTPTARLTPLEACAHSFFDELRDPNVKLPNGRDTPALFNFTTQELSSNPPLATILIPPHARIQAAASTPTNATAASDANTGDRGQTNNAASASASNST
Experimental: as §1

JAK3 = JAK3 (Homo sapiens (Human), UniProt P52333)
Sequence of JAK3 (P52333 whole entry): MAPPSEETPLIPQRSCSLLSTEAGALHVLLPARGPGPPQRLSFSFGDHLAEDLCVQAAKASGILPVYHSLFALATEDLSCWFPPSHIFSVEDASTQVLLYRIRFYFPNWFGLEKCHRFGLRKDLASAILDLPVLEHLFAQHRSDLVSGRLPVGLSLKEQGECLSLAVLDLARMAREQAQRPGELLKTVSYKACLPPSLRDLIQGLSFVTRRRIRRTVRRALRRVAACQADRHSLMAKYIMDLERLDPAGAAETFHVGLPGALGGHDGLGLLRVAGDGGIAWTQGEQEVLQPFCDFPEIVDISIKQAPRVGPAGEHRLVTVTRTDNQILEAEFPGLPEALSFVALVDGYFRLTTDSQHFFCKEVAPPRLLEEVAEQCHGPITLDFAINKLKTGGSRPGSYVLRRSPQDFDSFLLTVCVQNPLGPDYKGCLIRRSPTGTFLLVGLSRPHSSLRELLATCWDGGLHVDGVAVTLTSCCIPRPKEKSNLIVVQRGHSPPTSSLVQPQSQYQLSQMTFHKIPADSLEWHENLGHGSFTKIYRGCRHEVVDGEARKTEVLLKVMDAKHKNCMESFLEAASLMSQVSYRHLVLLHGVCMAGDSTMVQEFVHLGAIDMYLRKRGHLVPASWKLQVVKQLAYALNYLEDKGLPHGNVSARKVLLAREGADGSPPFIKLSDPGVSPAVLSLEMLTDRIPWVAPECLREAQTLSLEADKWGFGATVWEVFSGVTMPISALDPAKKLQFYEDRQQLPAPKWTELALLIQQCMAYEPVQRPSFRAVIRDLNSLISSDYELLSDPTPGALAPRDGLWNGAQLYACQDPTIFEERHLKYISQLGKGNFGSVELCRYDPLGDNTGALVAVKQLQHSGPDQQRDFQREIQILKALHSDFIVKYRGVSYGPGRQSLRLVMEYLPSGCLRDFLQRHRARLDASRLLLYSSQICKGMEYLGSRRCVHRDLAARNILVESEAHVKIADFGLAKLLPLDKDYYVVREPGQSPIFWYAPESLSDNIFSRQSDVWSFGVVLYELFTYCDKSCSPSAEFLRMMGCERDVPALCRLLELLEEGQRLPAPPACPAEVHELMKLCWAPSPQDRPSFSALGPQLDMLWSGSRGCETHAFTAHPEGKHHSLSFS
Experimental: as §1

JNK3 = JNK3 (Homo sapiens (Human), UniProt P53779)
Sequence of JNK3 (P53779 whole entry): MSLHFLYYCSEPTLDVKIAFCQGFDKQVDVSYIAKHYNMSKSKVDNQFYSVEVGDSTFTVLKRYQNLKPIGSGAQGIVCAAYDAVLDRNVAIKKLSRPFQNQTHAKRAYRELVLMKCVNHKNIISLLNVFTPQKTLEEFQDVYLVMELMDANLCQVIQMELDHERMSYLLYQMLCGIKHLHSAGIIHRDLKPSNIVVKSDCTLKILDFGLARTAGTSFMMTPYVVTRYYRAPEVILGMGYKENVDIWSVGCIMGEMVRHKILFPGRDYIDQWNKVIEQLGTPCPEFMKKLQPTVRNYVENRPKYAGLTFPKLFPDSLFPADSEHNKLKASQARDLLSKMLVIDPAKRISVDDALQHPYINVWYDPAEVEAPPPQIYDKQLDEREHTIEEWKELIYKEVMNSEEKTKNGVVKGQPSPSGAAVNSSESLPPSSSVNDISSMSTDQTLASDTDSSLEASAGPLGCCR
Experimental: as §1

LCK = LCK (Homo sapiens (Human), UniProt P06239)
Sequence of LCK (P06239 whole entry): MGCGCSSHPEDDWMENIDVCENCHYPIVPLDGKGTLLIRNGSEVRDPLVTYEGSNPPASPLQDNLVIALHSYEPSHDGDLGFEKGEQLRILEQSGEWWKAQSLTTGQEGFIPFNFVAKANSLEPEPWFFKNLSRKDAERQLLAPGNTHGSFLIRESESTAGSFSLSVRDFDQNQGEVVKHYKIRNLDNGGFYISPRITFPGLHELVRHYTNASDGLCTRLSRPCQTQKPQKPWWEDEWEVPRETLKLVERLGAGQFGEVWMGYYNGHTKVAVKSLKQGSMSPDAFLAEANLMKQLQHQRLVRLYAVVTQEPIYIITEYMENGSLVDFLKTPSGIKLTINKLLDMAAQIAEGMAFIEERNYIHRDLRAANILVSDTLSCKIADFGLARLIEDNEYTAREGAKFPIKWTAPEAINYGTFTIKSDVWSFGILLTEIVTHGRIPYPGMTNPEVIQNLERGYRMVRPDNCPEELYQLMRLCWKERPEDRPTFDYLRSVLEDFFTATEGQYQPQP
Experimental: as §1

LYN = LYN (Homo sapiens (Human), UniProt P07948)
Experimental: as §1

ROS/ROS1 = ROS/ROS1 (Homo sapiens (Human), UniProt P08922)
Sequence of ROS/ROS1 (P08922 28-2347): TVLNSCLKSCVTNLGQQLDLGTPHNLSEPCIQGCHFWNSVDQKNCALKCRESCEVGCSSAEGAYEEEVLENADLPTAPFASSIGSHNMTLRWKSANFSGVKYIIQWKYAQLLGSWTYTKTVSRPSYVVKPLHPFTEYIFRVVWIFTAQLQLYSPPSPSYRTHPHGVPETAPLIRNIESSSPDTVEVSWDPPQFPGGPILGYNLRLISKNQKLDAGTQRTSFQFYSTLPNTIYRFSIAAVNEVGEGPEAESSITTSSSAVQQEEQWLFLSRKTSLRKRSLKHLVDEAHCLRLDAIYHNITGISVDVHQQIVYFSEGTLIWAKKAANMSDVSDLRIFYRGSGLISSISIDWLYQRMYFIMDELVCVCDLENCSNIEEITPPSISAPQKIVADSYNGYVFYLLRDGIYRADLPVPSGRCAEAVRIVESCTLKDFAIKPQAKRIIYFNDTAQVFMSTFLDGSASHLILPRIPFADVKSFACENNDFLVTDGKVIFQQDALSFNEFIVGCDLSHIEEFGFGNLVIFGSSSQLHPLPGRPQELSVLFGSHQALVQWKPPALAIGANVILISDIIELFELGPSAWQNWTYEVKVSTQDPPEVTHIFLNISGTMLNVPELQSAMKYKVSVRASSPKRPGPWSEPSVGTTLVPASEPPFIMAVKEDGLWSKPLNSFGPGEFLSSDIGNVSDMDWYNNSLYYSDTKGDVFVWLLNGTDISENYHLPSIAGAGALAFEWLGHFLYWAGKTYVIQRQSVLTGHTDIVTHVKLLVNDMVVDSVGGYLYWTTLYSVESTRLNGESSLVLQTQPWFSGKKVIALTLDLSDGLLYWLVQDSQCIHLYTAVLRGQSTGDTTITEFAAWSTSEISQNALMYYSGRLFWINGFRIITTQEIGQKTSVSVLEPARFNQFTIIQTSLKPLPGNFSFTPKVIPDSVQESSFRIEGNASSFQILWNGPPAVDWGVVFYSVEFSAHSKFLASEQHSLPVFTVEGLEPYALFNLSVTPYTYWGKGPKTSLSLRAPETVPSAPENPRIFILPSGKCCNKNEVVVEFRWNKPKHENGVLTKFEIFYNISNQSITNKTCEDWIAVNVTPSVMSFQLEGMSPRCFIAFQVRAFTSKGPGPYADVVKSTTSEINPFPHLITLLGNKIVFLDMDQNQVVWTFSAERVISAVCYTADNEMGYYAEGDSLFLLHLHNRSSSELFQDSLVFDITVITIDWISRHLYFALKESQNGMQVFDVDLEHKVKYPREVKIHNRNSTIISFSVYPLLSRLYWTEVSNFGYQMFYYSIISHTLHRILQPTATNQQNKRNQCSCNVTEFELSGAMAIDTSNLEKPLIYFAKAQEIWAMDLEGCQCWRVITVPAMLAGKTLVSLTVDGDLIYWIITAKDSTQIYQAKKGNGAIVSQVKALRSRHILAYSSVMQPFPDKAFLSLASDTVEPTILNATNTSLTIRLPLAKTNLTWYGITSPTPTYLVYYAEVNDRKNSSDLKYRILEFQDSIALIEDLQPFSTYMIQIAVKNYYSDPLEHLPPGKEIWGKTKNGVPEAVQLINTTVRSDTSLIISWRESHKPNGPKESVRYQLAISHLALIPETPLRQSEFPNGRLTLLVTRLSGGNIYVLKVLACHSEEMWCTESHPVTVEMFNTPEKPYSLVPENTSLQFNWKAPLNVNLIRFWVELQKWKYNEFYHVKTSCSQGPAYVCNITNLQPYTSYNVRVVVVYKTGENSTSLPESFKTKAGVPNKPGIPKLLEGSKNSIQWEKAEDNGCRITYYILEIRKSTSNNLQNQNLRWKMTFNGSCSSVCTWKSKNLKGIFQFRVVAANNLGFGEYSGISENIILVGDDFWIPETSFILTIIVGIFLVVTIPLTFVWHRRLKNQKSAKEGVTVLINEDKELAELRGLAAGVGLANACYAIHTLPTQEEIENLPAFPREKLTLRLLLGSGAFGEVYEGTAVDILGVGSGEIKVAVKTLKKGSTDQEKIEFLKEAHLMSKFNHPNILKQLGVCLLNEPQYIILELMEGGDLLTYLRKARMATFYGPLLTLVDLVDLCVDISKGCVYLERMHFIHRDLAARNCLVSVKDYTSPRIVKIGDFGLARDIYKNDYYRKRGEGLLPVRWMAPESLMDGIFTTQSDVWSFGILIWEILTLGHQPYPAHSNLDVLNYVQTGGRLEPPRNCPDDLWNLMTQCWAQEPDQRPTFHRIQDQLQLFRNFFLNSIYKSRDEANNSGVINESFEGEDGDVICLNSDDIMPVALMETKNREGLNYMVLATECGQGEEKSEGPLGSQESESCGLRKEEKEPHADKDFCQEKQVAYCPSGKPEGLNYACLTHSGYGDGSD
Experimental: as §1

c-MET = c-MET (Homo sapiens (Human), UniProt P08581)
Experimental: as §1

[1] = Data 1 and Data 2, read-out: % Enzyme Activity (relative to DMSO controls)

- % Enzyme Activity (relative to DMSO controls) (CDK2/cyclin E; Data 1 and Data 2): 95.83%
- remaining activity at 10 µM (CDK2/cyclin E; [1]): 97.5%
- % Enzyme Activity (relative to DMSO controls) (FLT3; Data 1 and Data 2): 96.52%
- remaining activity at 10 µM (FLT3; [1]): 98.7%
- % Enzyme Activity (relative to DMSO controls) (FYN; Data 1 and Data 2): 94.86%
- remaining activity at 10 µM (FYN; [1]): 95.6%
- % Enzyme Activity (relative to DMSO controls) (GSK3b; Data 1 and Data 2): 29.80%
- remaining activity at 10 µM (GSK3b; [1]): 29.9%
- % Enzyme Activity (relative to DMSO controls) (JAK3; Data 1 and Data 2): 99.82%
- remaining activity at 10 µM (JAK3; [1]): 101%
- % Enzyme Activity (relative to DMSO controls) (JNK3; Data 1 and Data 2): 4.81%
- remaining activity at 10 µM (JNK3; [1]): 5.04%
- % Enzyme Activity (relative to DMSO controls) (LCK; Data 1 and Data 2): 95.50%
- remaining activity at 10 µM (LCK; [1]): 95.8%
- % Enzyme Activity (relative to DMSO controls) (LYN; Data 1 and Data 2): 85.66%
- remaining activity at 10 µM (LYN; [1]): 86.6%
- % Enzyme Activity (relative to DMSO controls) (ROS/ROS1; Data 1 and Data 2): 95.23%
- remaining activity at 10 µM (ROS/ROS1; [1]): 97.8%
- % Enzyme Activity (relative to DMSO controls) (c-MET; Data 1 and Data 2): 90.72%
- remaining activity at 10 µM (c-MET; [1]): 105%
SMILES: N#CCc1cnc(-c2ccc3ccccc3c2)n1-c1ccnc(NC2CCCN(C(=O)C3CC3)C2)n1 (centres unmarked) [Example 34, 2-(1-(2-(1-(cyclopropanecarbonyl)piperidine-3-ylamino)pyrimidine-4-yl)-2-(naphthalene-2-yl)-1H-imidazole-5-yl)acetonitrile]
